Test results reported in US20100256086A1, “NON-HYDROLYZABLE NUCLEOSIDE DI- OR TRI-PHOSPHATE DERIVATIVES AND USES THEREOF” (priority 2007, published 2010).
Blank lines part the entries; values can stand above or below the compound they belong to.

Columns and labels:
[1] = pKa and degree of ionization of terminal phosphonate/phosphate; type: physicochemical; details: assay conditions, pH 7.4
human P2Y2 = biological target: T1, human P2Y2 (Homo sapiens, UniProt P41231); test: Intracellular calcium measurement ([Ca2+]i, fura-2) in 1321N1 astrocytoma cells; type: cell-based; set-up: key to Compound-induced activation of [Ca2+], P2Y2, response class: sr = slight response at 100 μM; nr = no response
T1 construct: expressed in transfected cells
Procedure: (§1) Human 1321N1 astrocytoma cells stably expressing the turkey P2Y1, human P2Y2, human P2Y4 or rat P2Y6 were grown in Dulbecco's modified Eagle's medium containing 5% (v/v) fetal bovine serum, 100 units/ml penicillin, 100 μg/ml streptomycin and 500 μg/ml Geneticin (G-418, Life Technologies, Inc). Changes in the intracellular free calcium concentration, [Ca^2+]i were detected by dual-excitation spectrofluorometric analysis of cell suspensions loaded with fura-2, as previously described (Garrad et al., 1998; Grynkiewicz et al., 1985). Cells were assayed in 10 mM Hepes-buffered saline (pH 7.4) containing 1 mM CaCl2 and 1 mM MgCl2. The cells were pelleted in a microfuge and resuspended in 2 ml of buffer. Concentration-response data were analyzed with the Prism curve fitting program (GraphPAD Software, San Diego, Calif.). Three experiments were conducted on separate days for each P2Y receptor subtype.
(§2) The activities of compounds 2, 4B, 17, 18, 19A, 21 (isomers A and B) were examined at the G protein-coupled P2YRs, P2Y1, P2Y2, P2Y4 and P2Y6 expressed in human 1321N1 astrocytoma cells, based on intracellular calcium measurements, as described in Experimental above. In particular, the activity of compound 2, 4B and 19 was examined at P2Y1R, P2Y2R, P2Y4R and P2Y6R, and the activity of compounds 17, 18 and 21 was examined at P2Y1R only. The experiments were conducted by Prof. Gary A. Weisman from Columbia-Missouri University, Columbia, Mo., USA.

human P2Y4 = biological target: T2, human P2Y4 (Homo sapiens, UniProt P51582); test: as above; type: cell-based; set-up: key to Compound-induced activation of [Ca2+], P2Y4, response class: sr = slight response at 100 μM; nr = no response; details: 1321N1 cells expressing human P2Y4
T2 construct: expressed in transfected cells
Procedure: as §1, §2

turkey P2Y1 = biological target: T3, turkey P2Y1 (Meleagris gallopavo, UniProt P49652); test: as above; type: cell-based; details: for EC50: human 1321N1 astrocytoma cells expressing turkey P2Y1, read-out: Compound-induced activation of [Ca2+] EC50, P2Y1; for activities at the P2YRs tested: P2Y1, P2Y2, P2Y4 and P2Y6 tested
T3 construct: expressed in transfected cells
Procedure: as §1, §2

[2] = cited from earlier work
perfused rat pancreas = details: cited from earlier work
rat P2Y6 = biological target: T4, rat P2Y6 (Rattus norvegicus, UniProt Q63371); test: Intracellular calcium measurement ([Ca2+]i, fura-2) in 1321N1 astrocytoma cells; type: cell-based; set-up: key to Compound-induced activation of [Ca2+], P2Y6, response class: sr = slight response at 100 μM; nr = no response; details: for agonistic effect on P2Y6R: at 100 μM
T4 construct: expressed in transfected cells
Procedure: as §1, §2

ecto-nucleotidases = details: muscle strips preparations, 60 min incubation; cited from earlier work
[3] = Stability in human blood serum, Method A; type: in vitro ADME; details: human blood serum and RPMI-1640, 37° C.
Procedure: (§3) Preparation of the Human Blood Serum: Blood Taken from Healthy Volunteers was obtained from a blood bank (Tel-Hashomer hospital, Israel), stored for 12 h at 4° C. and centrifuged in plastic tubes at 1500 g for 15 min at room temperature. The serum was separated and stored at −80° C.
The assay mixture, containing a 40 mM nucleotide derivative solution in deionized water (4.5 μl), human blood serum (180 μl) and RPMI-1640 (540 μl), was incubated at 37° C. for 1, 4, 8, 16, 24, 48, 72 and 96 h. The samples were then treated with 0.6 M of hydrochloric acid (430 μl), centrifuged for 2 min (13,000 g, 4° C.), neutralized by addition of 4 M of KOH, centrifuged for 2 min (13,000 g, 4° C.) and freeze-dried. The stability of the nucleotide was evaluated by HPLC for monitoring possible dephosphorylation products. The mixture was separated on a Gemini analytic column (5u C-18 110A, 150×4.60 mm) with gradient elution [0.01 M KH2PO4 pH=4.5 (A)/acetonitrile (B), 100:0→60:40, A:B, 20 min for 2, 3A and 3B; 100:0→95:5, A:B, 10 min for ATP] and flow rate of 1 ml/min. The hydrolysis rate was determined by measuring the change in the integration of the respective HPLC peaks with time.

[4] = Stability in human blood serum, Method B; type: in vitro ADME; details: human blood serum and RPMI-1640, 37° C.
Procedure: as §3
The assay mixture, containing a 40 mM nucleotide derivative solution in deionized water (4.5 μl), human blood serum (180 μl) and RPMI-1640 (540 μl), was incubated at 37° C. for 1, 4, 8, 16, 24, 48, 72, 96, 120 and 144 h. The samples were then heated to 80° C. for 30 min, treated with CM Sephadex (1-2 mg) for 2 h, centrifuged for 6 min (12,000 rpm) and extracted with chloroform (2×500 μl). The aqueous layer was freeze-dried. The stability of the nucleotide was evaluated by HPLC for monitoring possible dephosphorylation products. The mixture was separated on a Gemini analytic column (5u C-18 110A, 150×4.60 mm) with gradient elution [100 mM TEAA, pH 7 (A)/MeOH (B), 79:21, A:B, 15 min for 4A and 4B; 100 mM TEAA, pH 7 (A)/acetonitryl (B), A:B, 10 min, 100:0→90:10 A:B 10 min, 90:10→80:20 A:B 4 min, 80:20 A:B 1 min for ATP] and flow rate of 1 ml/min. The hydrolysis rate was determined by measuring the change in the integration of the respective HPLC peaks with time.

[5] = Stability in human blood serum (Example 10)
[6] = biological target: T5, calf intestine alkaline phosphatase (Bos taurus, UniProt P19111); test: Enzymatic stability to alkaline phosphatase; type: in vitro ADME; details: 37° C., as in Example 6
T5 construct: purchased Fermentas Inc., Glen Burnie, Md
Procedure: Enzyme activity was measured by the release of p-nitrophenol from the nucleotide derivatives using a UV-vis spectrophotometer at 405 nm. Relative activity and resistance of nucleotides to enzymatic hydrolysis were determined at 37° C. Briefly, 32.5 μl of nucleotide derivative (77 μg/ml in 0.1 M Tris-HCl and 0.1 M MgCl2, pH 7.5) and 6 μl of deionized water were incubated with calf intestine alkaline phosphatase (Fermentas Inc., Glen Burnie, Md., 1 unit/μl, 6.25 μl at 37° C. final pH=9.8). After 30 min, the reaction was stopped by incubation at 80° C. for 30 min. The stability of the nucleotide derivative was evaluated by HPLC to monitor possible dephosphorylation products. The mixture was separated on a Gemini analytic column (5u C-18 110A, 150×4.60 mm) using gradient elution with Solvent System I (see Example 1) at 90:10 to 70:30 A:B for 3A and 3B, and 82:18 to 50:50 for 4A, 4B and 2 over 20 min and at a flow rate of 1 ml/min.

[7] = 1321N1 cells expressing rat P2Y6
[8] = 1321N1 cells expressing human P2Y2

T3 sequence (P49652 whole entry): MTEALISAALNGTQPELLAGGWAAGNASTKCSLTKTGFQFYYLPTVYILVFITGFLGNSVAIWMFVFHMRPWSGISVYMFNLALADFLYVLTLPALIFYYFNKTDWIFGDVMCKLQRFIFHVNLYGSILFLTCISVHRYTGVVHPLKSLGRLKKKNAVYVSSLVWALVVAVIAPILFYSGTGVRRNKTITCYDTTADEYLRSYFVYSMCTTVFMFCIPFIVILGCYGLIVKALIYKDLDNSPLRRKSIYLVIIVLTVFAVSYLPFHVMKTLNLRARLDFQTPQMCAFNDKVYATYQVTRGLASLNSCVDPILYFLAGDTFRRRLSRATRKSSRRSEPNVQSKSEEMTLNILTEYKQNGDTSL
T4 sequence (Q63371 whole entry): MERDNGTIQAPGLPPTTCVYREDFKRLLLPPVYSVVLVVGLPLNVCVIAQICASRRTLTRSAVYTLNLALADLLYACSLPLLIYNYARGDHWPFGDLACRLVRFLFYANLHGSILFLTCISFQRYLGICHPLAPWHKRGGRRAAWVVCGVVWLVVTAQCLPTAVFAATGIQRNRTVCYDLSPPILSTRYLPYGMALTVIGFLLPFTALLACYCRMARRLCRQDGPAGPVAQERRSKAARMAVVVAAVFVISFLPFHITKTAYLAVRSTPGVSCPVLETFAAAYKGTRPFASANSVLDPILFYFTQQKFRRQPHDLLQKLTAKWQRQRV
T2 sequence (P51582 whole entry): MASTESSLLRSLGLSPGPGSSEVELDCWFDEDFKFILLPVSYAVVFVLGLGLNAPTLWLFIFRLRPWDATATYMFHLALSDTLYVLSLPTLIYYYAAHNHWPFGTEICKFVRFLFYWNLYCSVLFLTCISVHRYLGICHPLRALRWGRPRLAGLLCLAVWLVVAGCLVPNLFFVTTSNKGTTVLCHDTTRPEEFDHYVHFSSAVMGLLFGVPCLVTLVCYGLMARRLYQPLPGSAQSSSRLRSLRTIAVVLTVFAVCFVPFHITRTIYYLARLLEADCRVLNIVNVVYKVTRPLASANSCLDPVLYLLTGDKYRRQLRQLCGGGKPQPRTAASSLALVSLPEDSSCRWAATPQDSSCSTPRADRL
T1 sequence (P41231 whole entry): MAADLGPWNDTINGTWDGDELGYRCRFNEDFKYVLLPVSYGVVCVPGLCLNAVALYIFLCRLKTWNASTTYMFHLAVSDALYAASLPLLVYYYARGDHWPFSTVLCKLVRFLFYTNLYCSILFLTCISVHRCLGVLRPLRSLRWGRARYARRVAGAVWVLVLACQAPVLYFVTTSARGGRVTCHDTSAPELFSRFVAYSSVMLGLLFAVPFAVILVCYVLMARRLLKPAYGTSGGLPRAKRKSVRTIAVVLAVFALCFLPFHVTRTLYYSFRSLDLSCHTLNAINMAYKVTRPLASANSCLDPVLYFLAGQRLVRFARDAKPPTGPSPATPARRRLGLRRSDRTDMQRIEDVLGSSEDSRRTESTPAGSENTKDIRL
T5 sequence (P19111 20-506): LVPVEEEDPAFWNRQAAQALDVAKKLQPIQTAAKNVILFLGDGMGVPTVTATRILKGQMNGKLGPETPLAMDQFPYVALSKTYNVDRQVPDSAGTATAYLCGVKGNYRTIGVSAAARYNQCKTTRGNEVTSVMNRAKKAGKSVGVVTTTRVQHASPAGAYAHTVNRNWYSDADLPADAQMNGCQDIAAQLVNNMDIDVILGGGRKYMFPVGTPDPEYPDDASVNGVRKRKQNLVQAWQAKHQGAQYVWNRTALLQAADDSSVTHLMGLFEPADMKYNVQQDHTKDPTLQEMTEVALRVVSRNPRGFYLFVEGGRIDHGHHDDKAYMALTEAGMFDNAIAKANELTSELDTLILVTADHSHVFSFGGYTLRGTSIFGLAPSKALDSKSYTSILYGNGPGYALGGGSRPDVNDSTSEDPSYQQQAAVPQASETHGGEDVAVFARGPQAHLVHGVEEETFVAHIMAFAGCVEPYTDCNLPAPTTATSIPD

fraction ionized [1]: 91%
Compound: CSc1nc(N)c2ncn([C@@H]3O[C@H](COP(=O)(O)OP(=O)(O)O)[C@@H](O)[C@H]3O)c2n1 [Compound 2-MeS-ADP, 2-MeS-ADP, reference compound]

EC50 (human P2Y2; 1321N1 cells expressing human P2Y2, read-out: Compound-induced activation of [Ca2+] EC50, P2Y2): 640 ± 250 nM
EC50 (human P2Y4; read-out: Compound-induced activation of [Ca2+] EC50, P2Y4): 480 ± 310 nM
Compound: O=c1ccn([C@@H]2O[C@H](COP(=O)(O)OP(=O)(O)OP(=O)(O)O)[C@@H](O)[C@H]2O)c(=O)[nH]1 [UTP, reference compound]

Compound: BP(=O)(OC[C@H]1O[C@@H](n2cnc3c(N)nc(SC)nc32)[C@H](O)[C@@H]1O)OP(=O)(O)C(Cl)(Cl)P(=O)(O)O (single isomer, unassigned) [Compound 21A, 2MeS-adenosine-β,γ-CCl2-5′-O-(1-boranotriphosphate)]
EC50 (turkey P2Y1): 570 nM

Compound: B[P@](=O)(OC[C@H]1O[C@@H](n2cnc3c(N)nc(SC)nc32)[C@H](O)[C@@H]1O)OP(=O)(O)CP(=O)(O)O [Compound 4A, 2MeS-adenosine-β,γ-CH2-5′-O-(1-boranotriphosphate)]
activity at P2Y2R, in words (human P2Y2): inactivity
activities at the P2YRs tested (turkey P2Y1): insignificant activities

Compound: CSc1nc(N)c2ncn([C@@H]3O[C@H](COP(=O)(O)C(Cl)(Cl)P(=O)(O)O)[C@@H](O)[C@H]3O)c2n1 [Compound 17, 2-MeS-adenosine-5′-dichloromethylene-diphosphate]
pKa value of the terminal phosphonate [2]: about 6.7
EC50 (turkey P2Y1): 3100 nM

Compound: BP(=O)(OC[C@H]1O[C@@H](n2cnc3c(N)nc(SC)nc32)[C@H](O)[C@@H]1O)OP(=O)(O)C(Cl)(Cl)P(=O)(O)O (single isomer, unassigned) [Compound 21, 2MeS-adenosine-β,γ-CCl2-5′-O-(1-boranotriphosphate)]
pKa value of the terminal phosphonate [2]: about 6.7

Compound: 2-MeS-ATP-α-B [Compound 1]
enhancement of insulin secretion as compared to basal secretion (perfused rat pancreas): 9 fold
EC50 (perfused rat pancreas; read-out: EC50 of insulin secretion): 28 nM

EC50 (rat P2Y6; 1321N1 cells expressing rat P2Y6, read-out: Compound-induced activation of [Ca2+] EC50, P2Y6): 200 ± 60 nM
Compound: O=c1ccn([C@@H]2O[C@H](COP(=O)(O)OP(=O)(O)O)[C@@H](O)[C@H]2O)c(=O)[nH]1 [UDP, reference compound]

Compound: Nc1ncnc2c1ncn2[C@@H]1O[C@H](COP(=O)(O)OP(=O)(O)OP(=O)(O)O)[C@@H](O)[C@H]1O [ATP, reference compound]
degradation by ecto-nucleotidases (ecto-nucleotidases): completely dephosphorylated
half-life in human blood serum [3]: 3.6 h
half-life in human blood serum [4]: 7.7 h

Compound: [BH3-]P(=O)(OC[C@H]1O[C@@H](n2cnc3c(N)nc(SC)nc32)[C@H](O)[C@@H]1O)OP(=O)([O-])[O-].[Na+].[Na+].[Na+] (some centres unmarked) [Compound 19A, 2MeS-adenosine-5′-O-(Pα-borano) diphosphate]
half-life in human blood serum ([5]; Example 10): > 24 h
percentage of the compound hydrolyzed ([5]; human blood serum, after 24 h): 25-40%
Compound-induced activation of [Ca2+], P2Y6, response class (rat P2Y6; [7]): nr
Compound-induced activation of [Ca2+], P2Y2, response class (human P2Y2; [8]): nr
Compound-induced activation of [Ca2+], P2Y4, response class (human P2Y4): nr
t1/2 to alkaline phosphatase [6]: about 6 h
EC50 (turkey P2Y1): 38 nM

Compound: B[P@](=O)(OC[C@H]1O[C@@H](n2cnc3c(N)ncnc32)[C@H](O)[C@@H]1O)OP(=O)(O)CP(=O)(O)O (single isomer, unassigned) [Compound 3A, Adenosine-β,γ-CH2-5′-O-(1-boranotriphosphate)]
half-life in human blood serum [3]: 14.1 h
activity at P2Y1R, in words (turkey P2Y1): practically inactive
activities at the P2YRs tested (turkey P2Y1): insignificant activities

Compound: CSc1nc(N)c2ncn([C@@H]3O[C@H](COP(=O)(O)C(F)(F)P(=O)(O)O)[C@@H](O)[C@H]3O)c2n1 [Compound 18, 2-MeS-adenosine-5′-difluoromethylene-diphosphate]
pKa value of the terminal phosphonate [2]: about 6.7
EC50 (turkey P2Y1): 980 nM

Compound: CSc1nc(N)c2ncn(C3OC(COP(=O)(O)OP(=O)(O)CP(=O)(O)O)C(O)C3O)c2n1 (stereo not drawn) [Compound 2, β,γ-CH2-2MeS-adenosine-5′-triphosphate]
degradation by ecto-nucleotidases (ecto-nucleotidases): no degradation
half-life in human blood serum [3]: 12.7 h
Compound-induced activation of [Ca2+], P2Y6, response class (rat P2Y6; [7]): sr
agonistic effect on P2Y6R (rat P2Y6): slight agonistic effect
activity at P2Y2R, in words (human P2Y2): inactivity
Compound-induced activation of [Ca2+], P2Y2, response class (human P2Y2; [8]): nr
fraction ionized [1]: 9%
Compound-induced activation of [Ca2+], P2Y4, response class (human P2Y4): nr
EC50 (turkey P2Y1): 80 nM

Compound: BP(=O)(OC[C@H]1O[C@@H](n2cnc3c(N)nc(SC)nc32)[C@H](O)[C@@H]1O)OP(=O)(O)C(Cl)(Cl)P(=O)(O)O (single isomer, unassigned) [Compound 21B, 2MeS-adenosine-β,γ-CCl2-5′-O-(1-boranotriphosphate)]
EC50 (turkey P2Y1): 1200 nM

Compound: B[P@](=O)(OC[C@H]1O[C@@H](n2cnc3c(N)nc(SC)nc32)[C@H](O)[C@@H]1O)OP(=O)(O)CP(=O)(O)O [Compound 4B, 2MeS-adenosine-β,γ-CH2-5′-O-(1-boranotriphosphate)]
Compound-induced activation of [Ca2+], P2Y6, response class (rat P2Y6; [7]): sr
agonistic effect on P2Y6R (rat P2Y6): slight agonistic effect
Compound-induced activation of [Ca2+], P2Y2, response class (human P2Y2; [8]): nr
half-life in human blood serum [4]: 71.9 h
Compound-induced activation of [Ca2+], P2Y4, response class (human P2Y4): nr
EC50 (turkey P2Y1): 17200 nM

Compound: Nc1ncnc2c1ncn2[C@@H]1O[C@H](COP(=O)(O)OP(=O)(O)CP(=O)(O)O)[C@@H](O)[C@H]1O [β,γ-CH2-ATP]
degradation by ecto-nucleotidases (ecto-nucleotidases): no degradation
